According to BigSolDB 2.1:

O=C1C=CC(=O)N1c1cc(F)c(Br)c(F)c1
Conditions | solubility (mole fraction)
in 1,4-dioxane, 287.65 K | 0.0122
in 1,4-dioxane, 290.65 K | 0.0133
in 1,4-dioxane, 293.85 K | 0.0146
in 1,4-dioxane, 297.15 K | 0.016
in 1,4-dioxane, 302.05 K | 0.0183
in 1,4-dioxane, 306.25 K | 0.0206
in 1,4-dioxane, 310.05 K | 0.023
in 1,4-dioxane, 317.15 K | 0.0281
in 1,4-dioxane, 321.65 K | 0.0318
in 1,4-dioxane, 324.45 K | 0.0342
in 1,4-dioxane, 330.85 K | 0.0408
in 1,4-dioxane, 335.35 K | 0.0464
in 1,4-dioxane, 339.15 K | 0.0513
in 1,4-dioxane, 342.25 K | 0.0558
in 1,4-dioxane, 347.25 K | 0.0639
in 1,4-dioxane, 353.65 K | 0.0759
in 2-butanone, 289.75 K | 0.0086
in 2-butanone, 299.25 K | 0.0112
in 2-butanone, 303.5 K | 0.0128
in 2-butanone, 308.75 K | 0.0149
in 2-butanone, 313 K | 0.017
in 2-butanone, 316.25 K | 0.0187
in 2-butanone, 318.6 K | 0.0202
in 2-butanone, 321.75 K | 0.022
in 2-butanone, 324.25 K | 0.0237
in 2-butanone, 327.05 K | 0.0257
in 2-butanone, 331.95 K | 0.0296
in 2-butanone, 335.25 K | 0.0326
in 2-butanone, 338.85 K | 0.036
in 2-butanone, 341.55 K | 0.039
in 2-butanone, 343.5 K | 0.0411
in 2-butanone, 345.25 K | 0.0432
in DMF, 289.45 K | 0.0208
in DMF, 293.65 K | 0.0228
in DMF, 300.83 K | 0.0269
in DMF, 305.65 K | 0.0301
in DMF, 308.85 K | 0.0324
in DMF, 317.55 K | 0.0398
in DMF, 320.45 K | 0.0426
in DMF, 322.95 K | 0.0452
in DMF, 325.25 K | 0.0477
in DMF, 333.55 K | 0.0582
in DMF, 337.65 K | 0.0643
in DMF, 342.65 K | 0.0722
in DMF, 346.65 K | 0.0794
in DMF, 350.75 K | 0.0876
in DMF, 353.35 K | 0.0932
in DMF, 356.25 K | 0.1
in DMSO, 289.35 K | 0.0116
in DMSO, 293.65 K | 0.0131
in DMSO, 297.05 K | 0.0143
in DMSO, 301.45 K | 0.0161
in DMSO, 305.95 K | 0.0184
in DMSO, 309.45 K | 0.0202
in DMSO, 314.05 K | 0.0231
in DMSO, 318.15 K | 0.026
in DMSO, 324.55 K | 0.0314
in DMSO, 328.05 K | 0.0348
in DMSO, 333.65 K | 0.0406
in DMSO, 338.85 K | 0.0473
in DMSO, 342.55 K | 0.0527
in DMSO, 346.05 K | 0.058
in DMSO, 349.35 K | 0.0637
in DMSO, 355.95 K | 0.0768
in cyclohexanone, 285.15 K | 0.0129
in cyclohexanone, 291.25 K | 0.0151
in cyclohexanone, 295.15 K | 0.0167
in cyclohexanone, 300.15 K | 0.0191
in cyclohexanone, 305.65 K | 0.0221
in cyclohexanone, 311.65 K | 0.0259
in cyclohexanone, 316.55 K | 0.0295
in cyclohexanone, 321.85 K | 0.0342
in cyclohexanone, 324.95 K | 0.037
in cyclohexanone, 328.75 K | 0.0411
in cyclohexanone, 333.25 K | 0.0462
in cyclohexanone, 337.35 K | 0.0515
in cyclohexanone, 341.35 K | 0.0572
in cyclohexanone, 348.35 K | 0.069
in cyclohexanone, 351.65 K | 0.0751
in cyclohexanone, 355.05 K | 0.0823
in toluene, 291.05 K | 0.0031
in toluene, 296.35 K | 0.0037
in toluene, 299.15 K | 0.0041
in toluene, 302.95 K | 0.0047
in toluene, 306.05 K | 0.0053
in toluene, 310.15 K | 0.0061
in toluene, 315.95 K | 0.0075
in toluene, 321.05 K | 0.0089
in toluene, 325.15 K | 0.0103
in toluene, 330.65 K | 0.0124
in toluene, 334.45 K | 0.014
in toluene, 340.75 K | 0.0175
in toluene, 343.55 K | 0.0192
in toluene, 348.45 K | 0.0226
in toluene, 350.65 K | 0.0244
in toluene, 354.45 K | 0.0276
